This is an account of results in article PMC6912361, “Systemic Toxicity Reported for CDK8/19 Inhibitors CCT251921 and MSC2530818 Is Not Due to Target Inhibition” (Cells, 2019).

In one assay the target is T1, MAP4K2 (Homo sapiens, UniProt Q12851).
T1 construct: purchased DiscoverX
T1 sequence (Q12851 1-820): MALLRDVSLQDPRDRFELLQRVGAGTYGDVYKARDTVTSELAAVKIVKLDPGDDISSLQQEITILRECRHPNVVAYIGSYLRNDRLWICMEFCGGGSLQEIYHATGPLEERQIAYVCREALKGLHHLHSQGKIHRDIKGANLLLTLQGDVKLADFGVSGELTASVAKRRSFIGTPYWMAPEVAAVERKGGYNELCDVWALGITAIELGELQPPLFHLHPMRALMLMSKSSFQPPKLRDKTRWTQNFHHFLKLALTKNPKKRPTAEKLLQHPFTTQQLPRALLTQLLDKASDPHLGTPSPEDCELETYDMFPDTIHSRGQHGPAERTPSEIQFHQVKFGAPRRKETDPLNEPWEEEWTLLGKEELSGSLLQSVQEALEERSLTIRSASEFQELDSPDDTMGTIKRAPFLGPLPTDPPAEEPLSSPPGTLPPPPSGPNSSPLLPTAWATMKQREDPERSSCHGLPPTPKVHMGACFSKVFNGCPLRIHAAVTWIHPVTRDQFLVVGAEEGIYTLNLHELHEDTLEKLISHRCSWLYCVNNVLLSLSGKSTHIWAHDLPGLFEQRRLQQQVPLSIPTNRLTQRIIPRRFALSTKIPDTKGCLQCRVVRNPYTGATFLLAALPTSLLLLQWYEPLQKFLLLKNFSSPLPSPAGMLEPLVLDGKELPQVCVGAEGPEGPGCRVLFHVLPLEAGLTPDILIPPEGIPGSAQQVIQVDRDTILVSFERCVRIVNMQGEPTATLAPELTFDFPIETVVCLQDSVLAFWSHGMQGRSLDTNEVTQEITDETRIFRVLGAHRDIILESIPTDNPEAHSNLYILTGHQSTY
Nature of the assay: KdELECT Kd determination, MAP4K2. Particulars: 11-point 3-fold serial dilution, duplicate; read-out: Kd for the inhibition of nucleotide binding, MAP4K2. How it is done: (§1) The screening platform employs an active site-directed competition binding assay to quantitatively measure interactions between test compounds and targeting kinases. […] To determine dissociation constants (Kds) of compounds on different targets, an 11-point 3-fold serial dilution of each test compound was tested in independent duplicate assays.
(§2) This assay has been previously used with many CDK8/19 inhibitors, including cortistatin A and its equipotent analog dCA [20, 21]; 15w.

For assay [1], the target named is T2, CDK8 (Homo sapiens, UniProt P49336). Nature of the assay: KdELECT Kd determination, CDK8. In kind it is binding. Details: purchased DiscoverX. Particulars: 11-point 3-fold serial dilution, duplicate; read-out: Kd for the inhibition of nucleotide binding, CDK8. How it is done:
To determine dissociation constants (Kds) of compounds on different targets, an 11-point 3-fold serial dilution of each test compound was tested in independent duplicate assays.
Target sequence in this assay (P49336 whole entry): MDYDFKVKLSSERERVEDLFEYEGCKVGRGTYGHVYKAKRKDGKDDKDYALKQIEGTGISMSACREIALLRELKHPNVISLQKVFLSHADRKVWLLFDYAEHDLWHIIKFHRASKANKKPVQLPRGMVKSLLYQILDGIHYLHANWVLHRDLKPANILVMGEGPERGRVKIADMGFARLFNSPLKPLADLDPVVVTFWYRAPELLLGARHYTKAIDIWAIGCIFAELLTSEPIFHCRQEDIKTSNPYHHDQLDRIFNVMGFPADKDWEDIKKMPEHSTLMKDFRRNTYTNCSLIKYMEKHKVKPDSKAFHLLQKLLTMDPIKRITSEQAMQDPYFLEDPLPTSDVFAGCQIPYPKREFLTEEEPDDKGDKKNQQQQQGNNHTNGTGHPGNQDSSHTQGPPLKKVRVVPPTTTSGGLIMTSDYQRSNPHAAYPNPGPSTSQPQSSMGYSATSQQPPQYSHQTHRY

The subject of assay [2] is STAT1 S727 phosphorylation. Nature of the assay: Western blot of STAT1 S727 phosphorylation in NIH 3T3 cells. It counts as cell-based, murine. Particulars: 1 μM. How it is done: (§3) Cells were cultured in 60-mm dishes and treated under different conditions before being lysed in RIPA lysis buffer with protease/phosphatase inhibitor cocktail. The protein concentration of extracts was determined using the DC protein assay (Bio-Rad Laboratories). Protein samples (50 μg) were resolved on 4–12% Express-Plus PAGE gels in Tris-MOPS (SDS) running buffer (GenScript, Piscataway, NJ, USA), transferred to PVDF membranes and incubated at 4 °C overnight with primary antibodies STAT1 (sc-592, Santa Cruz Biotechnology, Dallas, TX, USA) and pSTAT1-Ser727 (#8826, Cell Signaling Technology, Danvers, MA, USA) followed by anti-rabbit (NA934, GE Healthcare, Chicago, IL, USA) secondary antibodies. Bands were visualized with Western Lighting Plus ECL detection reagent (Perkin Elmer, Waltham, MA, USA) using ChemiDoc Touch™ (Bio-Rad). Images were analyzed using ImageLab (Bio-Rad) and ImageJ (version 1.52p) software for protein signal quantification.

The test system of assay [3] is STAT1 S727 phosphorylation. Nature of the assay: Basal STAT1 S727 phosphorylation in rat neurons in culture. It counts as cell-based. Particulars: not shown.
Assay [4] relates to STAT1 S727 phosphorylation. Details: method as in patent application US 2017/0115308A1. The conditions noted are these: ref patent application US 2017/0115308A1; cited from earlier work.
The test system of the next assay is CDK8/19. Nature of the assay: Cell-based QPCR assay of CDK8/19-dependent gene expression, HEK293 parental (WT) cells. On the set-up: species or system human. Particulars: for pIC50: HEK293 WT, 1 h pre-treatment, then 10 ng/mL TNFα 2 h, QPCR.
The test system of assay [5] is STAT1 S727 phosphorylation. Nature of the assay: Western blot of STAT1 S727 phosphorylation in 293-WT cells. In kind it is cell-based, human. The conditions noted are these: 1 μM. The protocol:
as §3

The target of assay [6] is T2, CDK8. Nature of the assay: Cell-based QPCR assay of CDK8/19-dependent gene expression, HEK293 CDK19 single-knockout (19KO) cells. On the set-up: CDK19 single-knockout (19KO); endogenous in cells; host or cells: HEK293 CDK19 knockout (19KO). The conditions noted are these: HEK293 19KO, 1 h pre-treatment, then 10 ng/mL TNFα 2 h.
Target sequence in this assay (P49336 whole entry): as above
Target sequence in this assay (P24863 whole entry partner): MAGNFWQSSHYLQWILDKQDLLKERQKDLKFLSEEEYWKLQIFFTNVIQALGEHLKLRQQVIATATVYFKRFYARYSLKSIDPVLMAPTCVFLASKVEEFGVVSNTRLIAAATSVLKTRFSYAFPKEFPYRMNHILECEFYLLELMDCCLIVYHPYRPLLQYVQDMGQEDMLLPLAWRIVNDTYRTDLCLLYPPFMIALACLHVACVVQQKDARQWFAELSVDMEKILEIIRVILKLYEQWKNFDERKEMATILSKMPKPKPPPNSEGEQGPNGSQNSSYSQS
Experimental: CDK8/CDK19 single knockout and double knockout derivatives of human embryonic kidney (HEK) 293 cells (ATCC CRL-1573) were generated as previously described [18]. All cells were cultured in DMEM (high-glucose) media supplemented with 10% fetal bovine serum (FBS) and Penicillin-Streptomycin-Glutamine (1×) at 37 °C with 5% CO2 and routinely confirmed to be free of mycoplasma.
Total RNA was extracted using RNAeasy Mini Kit (Qiagen, Germantown, MD, USA) and 1 µg of total RNA was used to generate cDNA using iScript cDNA synthesis kit (Bio-Rad Laboratories, Hercules, CA, USA). Gene expression was quantified using iTaq Universal SYBR green super mix using CFX384 Real-Time System (Bio-Rad).
The IC50 values for different inhibitors in inhibiting CDK8/19-dependent gene expression were calculated using a three-parameter least square (ordinary) fitting method with GraphPad Prism 7.0 (GraphPad Software, San Diego, CA, USA). The Kruskal–Wallis non-parametric ANOVA was used to compare gene expression levels under no-inhibitor conditions between wild-type cells and knockout derivatives (8KO, 19KO and dKO) with GraphPad Prism 7.0.
Cells were pre-treated with different concentrations of CDK8/19 inhibitors for 1 h and then 10 ng/mL TNFα, an inducer of transcription factor NFκB, which is potentiated by CDK8/19 [5], was added for 2 h before RNA extraction. QPCR was carried out to quantify CDK8/19-regulated expression of NFκB-inducible genes CXCL1 and CXCL8 and the basal expression of MYC.
The target of the next assay is PIKFYVE (Homo sapiens, UniProt Q9Y2I7). Nature of the assay: KdELECT Kd determination, PIKFYVE. Details: purchased DiscoverX. Particulars: 11-point 3-fold serial dilution, duplicate; read-out: Kd for the inhibition of nucleotide binding, PIKFYVE. The protocol: as §1, §2
The target of a further assay is T3, GSK3A (Homo sapiens, UniProt P49840).
T3 construct: purchased DiscoverX
Nature of the assay: KdELECT Kd determination, GSK3A. The conditions noted are these: 11-point 3-fold serial dilution, duplicate; read-out: Kd for the inhibition of nucleotide binding, GSK3A. How it is done: as §1, §2

The target in another assay is T4, JNK1 (MAPK8) (Homo sapiens, UniProt P45983).
T4 construct: purchased DiscoverX
Nature of the assay: KdELECT Kd determination, JNK1. Particulars: 11-point 3-fold serial dilution, duplicate; read-out: Kd for the inhibition of nucleotide binding, JNK1 (MAPK8). How it is done:
as §1, §2

Another assay has as its target T5, STK16 (Homo sapiens, UniProt O75716).
T5 construct: purchased DiscoverX
Nature of the assay: KdELECT Kd determination, STK16. The conditions noted are these: 11-point 3-fold serial dilution, duplicate; read-out: Kd for the inhibition of nucleotide binding, STK16. How it is done: as §1, §2

pIC50, pKd: −log10 of the molar value. Read-outs that look alike come from different tables or passages of the source.

Sequence of PIKFYVE (Q9Y2I7 whole entry): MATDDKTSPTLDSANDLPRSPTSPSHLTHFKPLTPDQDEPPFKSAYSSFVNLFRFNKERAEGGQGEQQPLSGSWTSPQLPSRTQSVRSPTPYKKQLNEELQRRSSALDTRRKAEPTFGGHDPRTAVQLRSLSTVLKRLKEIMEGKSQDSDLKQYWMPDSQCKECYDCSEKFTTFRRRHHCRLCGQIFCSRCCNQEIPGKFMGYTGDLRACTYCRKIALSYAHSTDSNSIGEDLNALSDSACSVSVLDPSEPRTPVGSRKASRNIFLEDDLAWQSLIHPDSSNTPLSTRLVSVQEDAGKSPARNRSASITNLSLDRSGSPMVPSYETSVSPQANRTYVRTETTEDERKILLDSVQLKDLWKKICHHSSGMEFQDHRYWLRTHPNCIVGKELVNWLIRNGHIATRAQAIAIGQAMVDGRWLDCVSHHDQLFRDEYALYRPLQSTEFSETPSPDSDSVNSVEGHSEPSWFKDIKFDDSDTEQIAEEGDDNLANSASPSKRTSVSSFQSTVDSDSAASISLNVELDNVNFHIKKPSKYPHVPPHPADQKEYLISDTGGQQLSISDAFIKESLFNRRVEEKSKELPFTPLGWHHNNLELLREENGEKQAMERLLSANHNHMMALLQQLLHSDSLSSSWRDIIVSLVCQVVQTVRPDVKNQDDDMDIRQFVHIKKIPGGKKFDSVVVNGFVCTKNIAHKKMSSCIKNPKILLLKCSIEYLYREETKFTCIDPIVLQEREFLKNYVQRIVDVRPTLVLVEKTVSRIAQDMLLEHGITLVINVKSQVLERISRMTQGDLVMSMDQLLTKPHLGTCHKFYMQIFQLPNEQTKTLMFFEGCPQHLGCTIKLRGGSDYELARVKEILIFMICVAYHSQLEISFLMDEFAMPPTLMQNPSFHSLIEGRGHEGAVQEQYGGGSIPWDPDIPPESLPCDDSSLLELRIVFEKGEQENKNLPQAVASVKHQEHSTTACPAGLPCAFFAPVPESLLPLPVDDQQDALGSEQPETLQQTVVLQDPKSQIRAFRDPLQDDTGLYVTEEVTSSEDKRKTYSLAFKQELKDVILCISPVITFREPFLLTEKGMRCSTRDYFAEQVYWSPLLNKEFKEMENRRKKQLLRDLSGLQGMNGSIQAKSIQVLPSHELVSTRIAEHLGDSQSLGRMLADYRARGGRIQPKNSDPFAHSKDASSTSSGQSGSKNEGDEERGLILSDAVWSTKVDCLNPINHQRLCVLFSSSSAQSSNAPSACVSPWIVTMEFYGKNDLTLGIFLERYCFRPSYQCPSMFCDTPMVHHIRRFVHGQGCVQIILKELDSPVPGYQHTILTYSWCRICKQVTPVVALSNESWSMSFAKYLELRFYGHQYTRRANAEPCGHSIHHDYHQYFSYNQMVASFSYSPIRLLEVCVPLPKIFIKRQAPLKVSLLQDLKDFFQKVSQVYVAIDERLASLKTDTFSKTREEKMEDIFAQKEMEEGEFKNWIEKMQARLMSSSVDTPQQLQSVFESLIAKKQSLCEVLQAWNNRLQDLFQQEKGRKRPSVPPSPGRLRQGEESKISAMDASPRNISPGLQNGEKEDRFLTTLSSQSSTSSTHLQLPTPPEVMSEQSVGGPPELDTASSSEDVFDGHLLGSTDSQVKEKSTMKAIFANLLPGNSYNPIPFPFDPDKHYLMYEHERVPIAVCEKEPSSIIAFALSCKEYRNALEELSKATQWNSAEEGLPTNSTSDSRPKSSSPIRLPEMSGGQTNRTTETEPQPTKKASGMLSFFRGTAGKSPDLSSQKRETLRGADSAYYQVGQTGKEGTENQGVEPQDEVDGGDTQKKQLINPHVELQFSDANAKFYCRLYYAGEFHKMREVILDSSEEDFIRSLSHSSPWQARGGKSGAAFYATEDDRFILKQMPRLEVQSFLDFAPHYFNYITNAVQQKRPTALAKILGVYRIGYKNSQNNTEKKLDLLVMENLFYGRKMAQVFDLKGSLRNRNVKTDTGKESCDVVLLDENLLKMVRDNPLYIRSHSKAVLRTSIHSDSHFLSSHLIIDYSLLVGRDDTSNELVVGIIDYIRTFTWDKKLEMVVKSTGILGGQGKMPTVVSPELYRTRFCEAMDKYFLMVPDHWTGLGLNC
T4 sequence (P45983 whole entry): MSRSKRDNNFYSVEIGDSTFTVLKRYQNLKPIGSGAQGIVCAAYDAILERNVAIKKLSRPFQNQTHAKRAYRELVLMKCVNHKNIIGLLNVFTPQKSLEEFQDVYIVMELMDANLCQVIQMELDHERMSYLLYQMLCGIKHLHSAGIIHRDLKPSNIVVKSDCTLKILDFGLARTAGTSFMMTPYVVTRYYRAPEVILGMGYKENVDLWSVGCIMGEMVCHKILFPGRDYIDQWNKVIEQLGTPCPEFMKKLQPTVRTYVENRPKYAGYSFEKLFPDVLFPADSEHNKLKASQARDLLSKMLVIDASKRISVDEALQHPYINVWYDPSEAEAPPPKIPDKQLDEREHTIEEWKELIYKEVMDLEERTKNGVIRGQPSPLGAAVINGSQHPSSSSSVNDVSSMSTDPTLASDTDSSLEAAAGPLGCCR
T3 sequence (P49840 whole entry): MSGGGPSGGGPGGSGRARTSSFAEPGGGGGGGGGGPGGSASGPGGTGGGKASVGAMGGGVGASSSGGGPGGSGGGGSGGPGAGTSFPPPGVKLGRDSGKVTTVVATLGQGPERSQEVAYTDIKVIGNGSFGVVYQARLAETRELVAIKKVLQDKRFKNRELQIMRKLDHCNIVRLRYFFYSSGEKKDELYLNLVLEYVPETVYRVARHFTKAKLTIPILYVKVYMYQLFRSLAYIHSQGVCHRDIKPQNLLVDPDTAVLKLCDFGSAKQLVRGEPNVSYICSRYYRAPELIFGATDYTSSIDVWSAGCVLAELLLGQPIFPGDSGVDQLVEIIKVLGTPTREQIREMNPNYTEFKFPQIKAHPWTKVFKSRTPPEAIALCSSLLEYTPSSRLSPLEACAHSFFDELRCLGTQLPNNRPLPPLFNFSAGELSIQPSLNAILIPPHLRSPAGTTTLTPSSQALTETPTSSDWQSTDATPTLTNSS
T5 sequence (O75716 whole entry): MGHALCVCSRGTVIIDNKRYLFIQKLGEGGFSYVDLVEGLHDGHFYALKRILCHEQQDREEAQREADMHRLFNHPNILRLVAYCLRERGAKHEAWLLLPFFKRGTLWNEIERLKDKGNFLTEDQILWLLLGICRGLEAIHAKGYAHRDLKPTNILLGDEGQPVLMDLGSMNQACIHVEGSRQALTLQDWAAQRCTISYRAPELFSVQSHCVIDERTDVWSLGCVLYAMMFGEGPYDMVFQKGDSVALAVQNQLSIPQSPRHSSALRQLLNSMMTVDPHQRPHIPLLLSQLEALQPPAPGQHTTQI

Regarding `CN1CCN(C(=O)c2ccc3cc(CCNc4ncnc5ccc(C#N)cc45)ccc3c2)CC1` [Senexin B], the negative logarithm of the Kd (pKd) was 6.24 at MAP4K2; 7.23 at CDK8 [1]; 4.85 on PIKFYVE; under 4.52 at GSK3A; 5.14 at JNK1 (MAPK8); 5.66 on STK16. The “Effect on STAT1 S727 phosphorylation, serum-starved NIH 3T3 cells” value in [2] (serum starvation 24 h) is reported as “inhibits STAT1 S727 phosphorylation”. In [2] (serum stimulation 1 h), the “Effect on STAT1 S727 phosphorylation, NIH 3T3 cells after addition of serum” value is given as “only a minor effect”. Also, in assay [3], the “Effect on basal STAT1 S727 phosphorylation in rat neurons in culture” value is listed as “did not detect any effect”. The “Effect on basal STAT1 S727 phosphorylation in all the tested tumor cell lines” value in assay [4] is on record as “inhibited”. For the same compound, the “Activity in the cell-based assay (WT, 8KO and 19KO cells)” value in the assay with CDK8/19 is reported as “an order of magnitude less active”. Moreover, the pIC50 in the assay with CDK8/19 (read-out: IC50, CXCL1 mRNA expression, WT) is 7.17; in the assay on CDK8/19 (read-out: IC50, CXCL8 mRNA expression, WT), 7.09; in the assay with CDK8/19 (read-out: IC50, MYC mRNA expression, WT) it was 7.35; on CDK8 [6] (read-out: IC50, CXCL1 mRNA expression, 19KO), 7.15; at CDK8 [6] (read-out: IC50, CXCL8 mRNA expression, 19KO) it was 7.15; on CDK8 [6] (read-out: IC50, MYC mRNA expression, 19KO), 7.29. Also, the “Effect on STAT1 S727 phosphorylation, WT 293 cells under standard conditions and serum-starved” value in assay [5] is reported as “inhibits STAT1 S727 phosphorylation”. In assay [5] (serum stimulation 1 h), the “Effect on serum-stimulated increase of STAT1 S727 phosphorylation, WT 293 cells” value is recorded as “only weakly affected”.
